From US10815210B2, “Benzocyclobutane derivatives useful as dual SGLT1 / SGLT2 modulators” (Janssen Pharmaceutica NV, priority 2016, dated 2020)

Experiments:
human SGLT2 = target: T1, human SGLT2 (Homo sapiens, UniProt P31639); assay: SGLT2 assay: Na-dependent 14C-AMG uptake in CHO-K1 cells stably expressing human SGLT2; assay type: cell-based; conditions: for IC50: 500 μM AMG, 2 hours at 37° C.
T1 construct: expressed in transfected cells; host or cells: CHO-K1
T1 sequence (P31639 1-672): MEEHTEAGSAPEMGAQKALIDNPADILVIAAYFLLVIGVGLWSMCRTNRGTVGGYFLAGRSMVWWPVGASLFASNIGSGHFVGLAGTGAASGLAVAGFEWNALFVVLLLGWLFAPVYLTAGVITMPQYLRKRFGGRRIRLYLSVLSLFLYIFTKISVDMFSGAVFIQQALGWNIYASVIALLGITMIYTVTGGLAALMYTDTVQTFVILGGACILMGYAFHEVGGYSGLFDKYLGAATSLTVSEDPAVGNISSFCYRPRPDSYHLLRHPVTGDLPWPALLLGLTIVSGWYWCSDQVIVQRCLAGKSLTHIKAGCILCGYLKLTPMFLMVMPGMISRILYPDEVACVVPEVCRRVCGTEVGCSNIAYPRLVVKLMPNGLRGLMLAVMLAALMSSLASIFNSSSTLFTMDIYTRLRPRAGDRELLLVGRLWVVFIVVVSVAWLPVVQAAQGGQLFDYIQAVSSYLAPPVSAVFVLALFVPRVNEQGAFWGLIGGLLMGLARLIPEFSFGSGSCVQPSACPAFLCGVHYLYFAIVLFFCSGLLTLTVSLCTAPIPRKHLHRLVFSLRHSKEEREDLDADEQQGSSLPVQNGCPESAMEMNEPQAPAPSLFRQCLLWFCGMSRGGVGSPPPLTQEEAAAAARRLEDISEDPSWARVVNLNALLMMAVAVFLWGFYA
Procedure, shortened: (§1)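 CHO-K1 cells stably expressing human SGLT1 or SGLT2, pretreated 24 h with 10 mM Na-butyrate, were exposed 10 min to compound (0.001-10 μM) in Na-containing HEPES/Tris buffer pH 7.4. Uptake of ^14C-AMG (500 μM final) ran 2 h at 37° C, then Na-dependent uptake was counted by scintillation.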

human SGLT1 = target: T2, human SGLT1 (Homo sapiens, UniProt P13866); assay: SGLT1 assay: Na-dependent 14C-AMG uptake in CHO-K1 cells stably expressing human SGLT1; assay type: cell-based; conditions: for IC50: 500 μM AMG, 2 hours at 37° C.
T2 construct: expressed in transfected cells; host or cells: CHO-K1
T2 sequence (P13866 1-664): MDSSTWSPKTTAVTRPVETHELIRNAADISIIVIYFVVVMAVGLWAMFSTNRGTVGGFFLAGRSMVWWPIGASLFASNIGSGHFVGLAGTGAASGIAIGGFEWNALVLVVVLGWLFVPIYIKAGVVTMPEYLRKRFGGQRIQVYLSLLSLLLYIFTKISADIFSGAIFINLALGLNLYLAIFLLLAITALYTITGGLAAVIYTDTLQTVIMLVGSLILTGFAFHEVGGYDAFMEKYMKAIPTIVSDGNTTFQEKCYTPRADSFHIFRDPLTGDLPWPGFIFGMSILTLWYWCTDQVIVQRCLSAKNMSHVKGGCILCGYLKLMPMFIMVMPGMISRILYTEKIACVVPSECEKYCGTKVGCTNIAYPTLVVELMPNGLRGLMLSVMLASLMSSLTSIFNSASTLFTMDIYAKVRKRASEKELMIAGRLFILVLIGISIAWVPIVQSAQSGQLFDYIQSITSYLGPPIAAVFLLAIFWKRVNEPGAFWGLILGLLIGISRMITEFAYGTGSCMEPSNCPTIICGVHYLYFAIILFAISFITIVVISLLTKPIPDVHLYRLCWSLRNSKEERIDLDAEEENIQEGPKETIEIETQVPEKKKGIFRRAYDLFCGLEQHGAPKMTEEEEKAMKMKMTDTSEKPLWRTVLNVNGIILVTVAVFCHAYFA
Procedure, shortened: as §1

SMILES | IC50 (human SGLT2) [nM] | IC50 (human SGLT1) [nM] | inhibition at 0.03 µM (human SGLT2; at 0.03 μM) [%] | inhibition at 0.3 µM (human SGLT1; at 0.3 μM) [%]
[2H]C([2H])(c1ccc2c(c1)CC2)c1cc([C@@H]2O[C@H](CO)[C@@H](O)[C@H](O)[C@H]2O)c(OC)cc1C [Compound 53, (2S,3R,4R,5S,6R)-2-(5-(dideuterium(1,2-dihydrocyclobutabenzen-4-yl)methyl)-2-methoxy-4-methylphenyl)-6-(hydroxymethyl)-tetrahydro-2H-pyran-3,4,6-triol] | 1 | 80 | – | –
[2H]C([2H])(c1ccc2c(c1)CC2)c1cc([C@@H]2O[C@H](CO)[C@@H](O)[C@H](O)[C@H]2O)c(OC)cc1Cl [Compound 56, (2S,3R,4R,5S,6R)-2-(5-[bicyclo[4.2.0]octa-(6),2,4-trien-3-yl(dideuterium)methyl]-4-chloro-2-methoxyphenyl)-6-(hydroxymethyl)oxane-3,4,5-triol] | 2 | 93 | – | –
[2H]C([2H])(c1ccc2c(c1)CC2)c1cc([C@@H]2O[C@H](CO)[C@@H](O)[C@H](O)[C@H]2O)ccc1CC [Compound 58, (2S,3R,4R,5S,6R)-2-(3-[bicyclo[4.2.0]octa-(6),2,4-trien-3-yl(dideuterium)methyl]-4-ethylphenyl)-6-(hydroxymethyl)oxane-3,4,5-triol] | 2 | 25 | – | –
[2H]C([2H])(c1ccc2c(c1)CC2)c1cc([C@@H]2O[C@H](CO)[C@@H](O)[C@H](O)[C@H]2O)c(OC)cc1CC [Compound 60, (2S,3R,4R,5S,6R)-2-(5-(dideuterium(1,2-dihydrocyclobutabenzen-4-yl)methyl)-4-ethyl-2-methoxyphenyl)-6-(hydroxymethyl)-tetrahydro-2H-pyran-3,4,5-triol] | 3 | 83 | – | –
[2H]C1([2H])Cc2ccc(Cc3cc([C@@H]4O[C@H](CO)[C@@H](O)[C@H](O)[C@H]4O)ccc3C)cc21 [Compound 65, (2S,3R,4R,5S,6R)-2-[3-[(8,8-dideuterium)bicyclo[4.2.0]octa-1(6),2,4-trien-3-ylmethyl]-4-methylphenyl]-6-(hydroxymethyl)oxane-3,4,5-triol] | 3 | 24 | – | –
[2H]C1([2H])Cc2ccc(Cc3cc([C@@H]4O[C@H](CO)[C@@H](O)[C@H](O)[C@H]4O)ccc3CC)cc21 [Compound 66, (2S,3R,4R,5S,6R)-2-(3-((2,2-dideuterium-1,2-dihydrocyclobutabenzen-4-yl)methyl)-4-ethylphenyl)-6-(hydroxymethyl)-tetrahydro-2H-pyran-3,4,5-triol] | 3 | 32 | – | –
[2H]C1([2H])Cc2cc(Cc3cc([C@@H]4O[C@H](CO)[C@@H](O)[C@H](O)[C@H]4O)c(OC)cc3Cl)ccc21 [Compound 83, (2S,3R,4R,5S,6R)-2-(5-{[(7,7-dideuterium)bicyclo[4.2.0]octa-1(6),2,4-trien-3-yl]methyl}-4-chloro-2-methoxyphenyl)-6-(hydroxymethyl)oxane-3,4,5-triol] | 1 | 64 | – | –
[2H]C1([2H])Cc2cc(Cc3cc([C@@H]4O[C@H](CO)[C@@H](O)[C@H](O)[C@H]4O)ccc3C)ccc21 [Compound 85, (2S,3R,4R,5S,6R)-(3-((1,1-dideuterium-1,2-dihydrocyclobutabenzen-4-yl)methyl)-4-methylphenyl)-6-(hydroxymethyl)-tetrahydro-2H-pyran-3,4,5-triol] | 2 | 46 | – | –

Second part, the compound after the results:

IC50 (human SGLT2) [nM] | IC50 (human SGLT1) [nM] | inhibition at 0.03 µM (human SGLT2; at 0.03 μM) [%] | inhibition at 0.3 µM (human SGLT1; at 0.3 μM) [%] | SMILES
1 | 84 | – | – | [2H]C1([2H])Cc2ccc(Cc3cc([C@@H]4O[C@H](CO)[C@@H](O)[C@H](O)[C@H]4O)c(OC)cc3C)cc21 [Compound 63, (2S,3R,4R,5S,6R)-2-(5-((2,2-dideuterium-1,2-dihydrocyclobutabenzen-4-yl)methyl)-2-methoxy-4-methylphenyl)-6-(hydroxymethyl)-tetrahydro-2H-pyran-3,4,5-triol]
2 | 48 | – | – | [2H]C1([2H])Cc2ccc(Cc3cc([C@@H]4O[C@H](CO)[C@@H](O)[C@H](O)[C@H]4O)c(OC)cc3Cl)cc21 [Compound 67, (2S,3R,4R,5S,6R)-2-(5-{[(8,8-dideuterium)bicyclo[4.2.0]octa-1(6),2,4-trien-3-yl]methyl}-4-chloro-2-methoxyphenyl)-6-(hydroxymethyl)oxane-3,4,5-triol]
5 | 50 | – | – | [2H]C1([2H])Cc2ccc(Cc3cc([C@@H]4O[C@H](CO)[C@@H](O)[C@H](O)[C@H]4O)c(OC)cc3CC)cc21 [Compound 69, (2S,3R,4R,5S,6R)-2-(5-[(8,8-Hz)bicyclo[4.2.0]octa-1(6),2,4-trien-3-ylmethyl]-4-ethyl-2-methoxyphenyl)-6-(hydroxymethyl)oxane-3,4,5-triol]
– | – | 35 | 85 | [2H]C1([2H])Cc2ccc(Cc3cc([C@@H]4O[C@H](CO)[C@@H](O)[C@H](O)[C@H]4O)c(F)cc3C)cc21 [Compound 70, (2S,3R,4R,5S,6R)-2-(5-{[(8,8-dideuterium)bicyclo[4.2.0]octa-1(6),2,4-trien-3-yl]methyl}-2-fluoro-4-methylphenyl)-6-(hydroxymethyl)oxane-3,4,5-triol]
3 | 71 | – | – | [2H]C1([2H])Cc2ccc(Cc3cc([C@@H]4O[C@H](CO)[C@@H](O)[C@H](O)[C@H]4O)c(F)cc3Cl)cc21 [Compound 71, (2S,3R,4R,5S,6R)-2-{5-[(8,8-dideuterium)bicyclo[4.2.0]octa-1(6),2,4-trien-3-ylmethyl]-4-chloro-2-fluorophenyl}-6-(hydroxymethyl)oxane-3,4,5-triol]
3 | 24 | – | – | [2H]C1([2H])Cc2ccc(Cc3cc([C@@H]4O[C@H](CO)[C@@H](O)[C@H](O)[C@H]4O)c(F)cc3OC)cc21 [Compound 72, (2S,3R,4R,5S,6R)-2-{5-[(8,8-dideuterio)bicyclo[4.2.0]octa-1(6),2,4-trien-3-ylmethyl]-2-fluoro-4-methoxyphenyl}-6-(hydroxymethyl)oxane-3,4,5-triol]
3 | 16 | – | – | [2H]C1([2H])Cc2ccc(Cc3cc([C@@H]4O[C@H](CO)[C@@H](O)[C@H](O)[C@H]4O)c(F)cc3CC)cc21 [Compound 73, (2S,3R,4R,5S,6R)-2-(5-((2,2-dideuterium-1,2-dihydrocyclobutabenzen-4-yl)methyl)-4-ethyl-2-fluorophenyl)-6-(hydroxymethyl)-tetrahydro-2H-pyran-3,4,5-triol]
10 | 12 | – | – | [2H]C1([2H])Cc2ccc(Cc3cc([C@@H]4O[C@H](CO)[C@@H](O)[C@H](O)[C@H]4O)c(F)cc3C3CC3)cc21 [Compound 74, (2S,3R,4R,5S,6R)-2-(4-cyclopropyl-5-((2,2-dideuterium-1,2-dihydrocyclobutabenzen-4-yl)methyl)-2-fluorophenyl)-6-(hydroxymethyl)-tetrahydro-2H-pyran-3,4,5-triol]
2 | 68 | – | – | [2H]C1([2H])Cc2cc(Cc3cc([C@@H]4O[C@H](CO)[C@@H](O)[C@H](O)[C@H]4O)c(OC)cc3C)ccc21 [Compound 86, (2S,3R,4R,5S,6R)-2-(5-((1,1-dideuterium-1,2-dihydrocyclobutabenzen-4-yl)methyl)-2-methoxy-4-methylphenyl)-6-(hydroxymethyl)-tetrahydro-2H-pyran-3,4,5-triol]
